Experimental data taken from patent publication US6348477B1, “Anti-herpesvirus compounds and methods for identifying, making and using same” (Boehringer Ingelheim(Canada) Ltd., priority 1995, dated 2002).
Marks after values point to notes of the source that are not given here.

Assays:
Hs-68 cells = assay: Cytotoxicity noted in the CMV assays (table footnote); assay type: cell-based; conditions: Group 1 Table 1
Method: (§1) Hs-68 cells (ATCC # CRL 1635) were seeded in 96 well microtiter plates at 10,000 cells/well in 100 μL of DMEM medium (Gibco Canada Inc.) supplemented with 10% fetal bovine serum (FBS, Gibco Canada Inc.). The plates were incubated for 3 days at 37° to allow the cells to reach 80-90% confluency prior to the assay.
as §1, with “( ATCC” for “(ATCC”, “12-well” for “96 well microtiter”, “83,000” for “10,000”, “1 mL” for “100 μL”

HSV-1 helicase-primase = target: T1, HSV-1 helicase-primase (Human herpesvirus 1, UniProt P10189+P10236); assay: HSV-1 DNA-dependent ATPase assay (inhibition of HSV-1 helicase-primase); assay type: biochemical; conditions: Group 1 Table 1
T1 construct: made in house; host or cells: Sf21 insect cells triply infected with recombinant baculoviruses
T1 sequence (P10189 whole entry): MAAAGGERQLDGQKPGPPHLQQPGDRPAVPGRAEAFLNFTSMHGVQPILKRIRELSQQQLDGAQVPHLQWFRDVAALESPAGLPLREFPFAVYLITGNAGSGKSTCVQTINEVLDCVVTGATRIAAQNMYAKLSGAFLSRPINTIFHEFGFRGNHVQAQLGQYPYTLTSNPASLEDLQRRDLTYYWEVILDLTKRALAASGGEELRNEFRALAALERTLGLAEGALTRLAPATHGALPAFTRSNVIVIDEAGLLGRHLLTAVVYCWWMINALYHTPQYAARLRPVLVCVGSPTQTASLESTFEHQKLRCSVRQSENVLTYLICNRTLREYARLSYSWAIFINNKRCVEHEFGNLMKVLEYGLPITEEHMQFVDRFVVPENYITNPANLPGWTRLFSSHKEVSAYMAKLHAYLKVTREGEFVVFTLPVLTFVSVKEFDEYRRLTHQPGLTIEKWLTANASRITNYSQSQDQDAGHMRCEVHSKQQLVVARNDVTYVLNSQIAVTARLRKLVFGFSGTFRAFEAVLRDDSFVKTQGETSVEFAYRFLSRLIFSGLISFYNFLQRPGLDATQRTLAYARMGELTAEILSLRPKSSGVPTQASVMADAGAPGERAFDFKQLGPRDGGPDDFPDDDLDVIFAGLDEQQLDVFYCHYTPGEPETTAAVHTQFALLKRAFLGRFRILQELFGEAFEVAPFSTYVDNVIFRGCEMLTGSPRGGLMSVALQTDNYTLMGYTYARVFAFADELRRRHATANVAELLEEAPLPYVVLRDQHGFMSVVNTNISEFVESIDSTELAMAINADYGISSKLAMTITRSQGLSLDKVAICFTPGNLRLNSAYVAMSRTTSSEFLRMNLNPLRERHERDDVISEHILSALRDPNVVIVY
T1 sequence (P10192 whole entry, further chain): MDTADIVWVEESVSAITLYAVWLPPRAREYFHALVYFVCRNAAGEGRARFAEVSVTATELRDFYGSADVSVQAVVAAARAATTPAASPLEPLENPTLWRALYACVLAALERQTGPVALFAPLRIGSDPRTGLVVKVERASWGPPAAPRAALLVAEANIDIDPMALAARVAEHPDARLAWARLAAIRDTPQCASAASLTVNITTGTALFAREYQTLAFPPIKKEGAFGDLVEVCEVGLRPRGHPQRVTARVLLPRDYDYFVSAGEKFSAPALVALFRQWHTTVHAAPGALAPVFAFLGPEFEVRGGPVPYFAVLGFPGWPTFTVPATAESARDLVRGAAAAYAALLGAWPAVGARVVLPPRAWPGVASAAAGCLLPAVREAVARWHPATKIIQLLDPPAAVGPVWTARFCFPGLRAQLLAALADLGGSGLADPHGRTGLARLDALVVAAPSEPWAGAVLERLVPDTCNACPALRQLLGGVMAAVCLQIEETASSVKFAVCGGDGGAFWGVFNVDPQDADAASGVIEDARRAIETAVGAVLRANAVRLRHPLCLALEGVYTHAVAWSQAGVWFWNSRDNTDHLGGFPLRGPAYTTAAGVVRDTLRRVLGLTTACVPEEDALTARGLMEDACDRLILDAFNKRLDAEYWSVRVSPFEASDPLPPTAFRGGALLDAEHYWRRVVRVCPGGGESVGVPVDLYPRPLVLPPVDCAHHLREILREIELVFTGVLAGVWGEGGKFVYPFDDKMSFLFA
T1 sequence (P10236 whole entry): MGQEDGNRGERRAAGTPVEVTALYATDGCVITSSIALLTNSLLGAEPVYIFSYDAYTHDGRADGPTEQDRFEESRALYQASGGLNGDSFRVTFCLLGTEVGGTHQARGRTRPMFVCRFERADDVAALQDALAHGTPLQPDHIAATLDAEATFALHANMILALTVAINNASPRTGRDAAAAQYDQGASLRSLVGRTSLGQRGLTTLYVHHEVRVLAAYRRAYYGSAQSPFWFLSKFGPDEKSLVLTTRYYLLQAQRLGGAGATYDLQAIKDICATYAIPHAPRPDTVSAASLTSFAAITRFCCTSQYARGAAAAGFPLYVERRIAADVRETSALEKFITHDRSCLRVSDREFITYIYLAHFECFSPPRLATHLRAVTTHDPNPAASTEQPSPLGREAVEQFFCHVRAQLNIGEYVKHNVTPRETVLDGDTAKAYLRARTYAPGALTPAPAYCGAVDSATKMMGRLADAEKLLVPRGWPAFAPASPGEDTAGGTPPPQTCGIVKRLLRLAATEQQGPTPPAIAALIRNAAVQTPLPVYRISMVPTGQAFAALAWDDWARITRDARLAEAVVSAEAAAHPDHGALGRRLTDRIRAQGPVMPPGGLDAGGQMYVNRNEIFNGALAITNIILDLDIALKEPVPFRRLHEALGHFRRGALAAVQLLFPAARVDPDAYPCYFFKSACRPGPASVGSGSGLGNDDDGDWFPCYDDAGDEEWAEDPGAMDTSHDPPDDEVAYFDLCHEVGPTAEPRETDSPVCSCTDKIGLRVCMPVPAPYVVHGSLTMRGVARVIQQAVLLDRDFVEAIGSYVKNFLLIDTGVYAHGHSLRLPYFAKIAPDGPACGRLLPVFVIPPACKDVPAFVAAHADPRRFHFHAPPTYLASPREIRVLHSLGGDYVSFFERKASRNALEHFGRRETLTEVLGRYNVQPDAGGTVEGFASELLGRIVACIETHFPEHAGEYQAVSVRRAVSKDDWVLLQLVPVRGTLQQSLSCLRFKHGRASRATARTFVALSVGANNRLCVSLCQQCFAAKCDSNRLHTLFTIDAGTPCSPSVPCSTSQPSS
Text: A) HSV-1 DNA-Dependent ATP Assay (an in Vitro Assay Based on the Inhibition of HSV-1 Helicase-primase).
a) Preparation of enzyme: HSV-1 helicase-primase holoenzyme was produced in triply infected Sf21 cells using recombinant baculoviruses expressing the UL5, UL8 and UL52 helicase-primase subunits, as described by S. Dracheva et al., J. Biol. Chem. 1995, 270, 14148. The crude enzyme was purified by ammonium sulfate precipitation, Source 15Q® chromatography and Sephacryl® S-300 HR gel filtration (both purification systems can be obtained from Pharmacia Biotech Inc., Montreal, Quebec, Canada), see S. Dracheva et al., supra.
b) Assay: The DNA-dependent ATPase assay, described by J. J. Crute et al., Nucleic Acids Res. 1988, 16, 6585, was modified and used to evaluate the capability of the compounds of Group 1-formula 1 to inhibit HSV-1 helicase-primase activity. The reaction mixtures (80 μL each) contained 40 mM 4-(2-hydroxyethyl)-1-piperazineethanesulfonic acid (HEPES, pH 7.5), 10% (v/v) glycerol, 5.5 mM MgCl2, 1 mM DL-dithiothreitol (DTT), 50 μg/mL acetylated bovine serum albumin, 3.3% (v/v) DMSO, 4 mM ATP, 25 μM single-stranded M13 DNA hybridized to double-tailed 68-mer oligonucleotide and 3 μg/mL HSV-1 helicase-primase. After incubation for 20 min at 34°, formation of inorganic phosphate from hydrolysis of ATP was monitored spectrophotometrically at 650 nm using acidic ammonium molybdate/malachite green reagent, P. A. Lanzetta et al., Anal. Biochem. 1979, 100, 95. DNA-dependent ATPase activity was calculated from the net absorbance change in the presence and absence of inhibition.

HSV-1 strain F or KOS = assay: Inhibition of herpes simplex virus (HSV-1) replication in cell culture (BHK-21 cells, glycoprotein C ELISA); assay type: cell-based; conditions: Group 1 Table 1
Method: B) Inhibition of Herpes Simplex Virus (HSV-1) Replication in Cell Culture
Assay: BHK-21 cells clone 13 (ATCC CCL10) were incubated for two days in 850 cm^2 roller bottles (2×10^7 cells/bottle) with α-MEM medium (Gibco Canada Inc., Burlington, Ontario, Canada) supplemented with 8% (v/v) fetal bovine serum (FBS, Gibco Canada, Inc.). The cells were trypsinized and then 3,000 cells in 100 μL of fresh medium were transferred into each well of a 96-well microtiter plate. The cells were incubated at 37° for a period of 3 days to reach a density of 50,000 cells per well. The cells were washed twice with 100 μL of α-MEM supplemented with 2% heat inactivated FBS and incubated for 1-2 hours in 100 μL of the same medium.
Thereafter, the cells were infected with HSV-1 strain F or KOS (multiplicity of infection=0.05 PFU/cell) in 50 μL of α-MEM supplemented with 2% heat inactivated FBS. Following one hour of virus absorption at 37°, the medium was removed and the cells were washed with α-MEM supplemented with 2% heat inactivated FBS (2×100 μL). The cells were incubated with or without 100 μL of the appropriate concentration of test reagent in α-MEM medium supplemented with 2% heat inactivated FBS. After 24 hours of incubation at 37°, the extent of viral replication was determined by an ELISA assay; for instance, the following assay that detects the late glycoprotein C of HSV-1.
Cells were fixed in the microtiter plate with 100 μL of 0.063% glutaraldehyde in phosphate buffered saline for 30 min at room temperature. The microtiter plate was then washed once with casein blocking solution and blocked with 200 μL of the same solution for one hour at room temperature. Thereafter, 100 μL of mAb C11 recognizing the glycoprotein C of HSV-1 (see E. Trybala et al., Journal of General Virology, 1994, 75, 743) was added to each well for two hours at room temperature. The plate was washed three times with phosphate buffered saline containing 0.05% polyoxyethylene (20) sorbitan monooleate. The cells were incubated with 100 μL of sheep anti-mouse IgG horseradish peroxidase for one hour at room temperature in the dark.
The plate was washed three times with 200 μL of the above-noted phosphate buffer saline preparation, and then once with 0.1 M sodium citrate (pH 4.5). Thereafter, 100 μL of orthophenylenediamine dihydrochloride (OPD, Gibco, Canada Inc.) was added to each well. The plate was agitated on a microplate shaker for 30 min in the dark. Color development was monitored at 450 nm using a microplate spectrophotometer.
SAS was used to calculate % inhibition of viral replication and to generate EC50 values.

HCMV (strain AD169) [1] = assay: Inhibition of HCMV replication, ELISA assay (Hs-68 cells, p28); assay type: cell-based, human cytomegalovirus; conditions: Group 1 Table 1, read-out: ELISA CMV EC50
Method: (§2) C) Inhibition of Human Cytomegalovirus (HCMV) replication
(§3) The effect of compounds on the replication of HCMV has been measured by using an ELISA-based assay (ELISA) and a plaque reduction assay (PRA).
as §1
The medium was removed from wells by aspiration. The cells then were infected at a multiplicity of infection (MOI) of 0.01 PFU/cell with 50 μL of HCMV (strain AD169, ATCC VR-538) in DMEM medium supplemented with 5% heat inactivated FBS (assay medium). The virus was allowed to adsorb to cells for 2 h at 37°. Following viral adsorption, the medium was removed from the wells by aspiration. The cells were washed twice with 200 μL of assay medium to remove unabsorbed virus. The cells were then incubated with or without 100 μL of appropriate concentrations of test reagent in assay medium. After 8 days of incubation at 37°, the extent of viral replication was determined by an ELISA assay which detects the late structural protein p28 of HCMV.
Eight days after infection, the medium was aspirated from the wells. Non-specific binding sites were blocked by adding 200 μL of phosphate buffered saline containing 1% (w/v) bovine serum albumin (blocking buffer) to each well and incubating the plates for 30 min at room temperature. After removal of the blocking buffer by aspiration, the cells were fixed with 100 μL of cold ethanol-acetone solution (95:5) per well. The plates were placed at −20° for 30 min. The plates were washed 4 times with phosphate buffered saline containing 0.05% (v/v) polyoxyethylene sorbitan monolaurate (Tween 20®). Thereafter, 100 μL of mAb UL99 (Advanced Biotechnologies Inc., #13-130-100) recognizing HCMV protein p28 was added to each wells and plates were incubated for 2 h at room temperature. The plates were washed four times with 200 μL of the above-noted phosphate buffered saline/Tween-20® solution. The cells were then incubated with 100 μL of sheep anti-mouse IgGγ horseradish peroxidase conjugated for 2 h at room temperature. The plates were then washed four times with 200 μL of above-noted phosphate buffered saline/Tween-20®solution. Thereafter, 100 μL of ortho phenylenediamine dihydrochloride (OPD, Gibco Canada Inc.) solution was added to each well and the plates were agitated on a microplate shaker for 30 min in the dark. Color development was monitored at 450 nm using a microplate spectrophotometer.
The SAS program was used to calculate the % inhibition of viral replication and to generate EC50 values.
The EC50 values obtained according to this assay method for certain thiazolylphenyl derivatives of this invention are listed in the following tables under the heading ELISA CMV.

HCMV (strain AD169) [2] = assay: Inhibition of HCMV replication, plaque reduction assay (PRA, Hs-68 cells); assay type: cell-based, human cytomegalovirus; conditions: Group 1 Table 1, read-out: PRA CMV EC50
Method: as §2, §3
as §1, with “( ATCC” for “(ATCC”, “12-well” for “96 well microtiter”, “83,000” for “10,000”, “1 mL” for “100 μL”
The medium was removed from the cells by aspiration. The cells were then infected with approximately 50 PFU of HCMV (strain AD169, ATCC VR-538) in DMEM medium supplemented with 5% inactivated FBS (assay medium). The virus was allowed to adsorb to cells for 2 h at 37°. Following viral adsorption, the medium was removed from the wells by aspiration. The cells were then incubated with or without 1 mL of appropriate concentrations of test reagent in assay medium. After 4 days of incubation at 37°, the medium was exchanged with fresh medium containing test compound and 4 days later the cells were fixed with 1% aqueous formaldehyde and stained with a 2% crystal violet solution in 20% ethanol in water. Microscopic plaques were counted using a stereomicroscope. Drug effects were calculated as a percent reduction in the number of plaques in the presence of each drug concentration compared to the number observed in the absence of drug. Ganciclovir was used as a positive control in all experiments.
The EC50 values obtained according to this assay for certain thiazolyl derivatives of this invention are listed in the following tables under the heading PRA CMV.

[3] = Human betaherpesvirus 5, AD169, Hs68

| Compound | Cytotoxic at this concentration (Hs-68 cells; asterisk in PRA CMV) | melting point | further results |
| --- | --- | --- | --- |
| Cc1ccccc1CN(CC(=O)Nc1ccc(-c2csc(N)n2)cc1)C(=O)Cc1ccccn1 [Example 127] | 25* μM | – | – |
| Nc1nc(-c2ccc(NC(=O)CN(Cc3ccccc3)C(=O)Cc3cccnc3)cc2)cs1 [Example 113] | >50* μM | – | – |
| CC(c1ccccc1)N(CC(=O)Nc1ccc(-c2csc(N)n2)cc1)C(=O)OC(C)(C)C (centres unmarked) [Example 89] | – | – | IC50 (HSV-1 helicase-primase): 0.098 µM; EC50 (HSV-1 strain F or KOS): 0.036 µM; EC50 (HCMV (strain AD169) [1]): 0.9 µM; EC50 (HCMV (strain AD169) [2]): 38 µM |
| Nc1nc(-c2ccc(NC(=O)CN(CC3CCCCC3)S(=O)(=O)N3CCOCC3)cc2)cs1 [Example 107] | 12* μM | – | IC50 (HSV-1 helicase-primase): 2.6 µM; EC50 (HCMV (strain AD169) [1]; [3]): 1.1 µM; EC50 (HCMV (strain AD169) [2]; [3]): 12 µM |
| CCCC(CCC)N(CC(=O)Nc1ccc(-c2csc(N)n2)cc1)C(=O)OC(C)(C)C [Example 111] | – | – | Cytotoxic at this concentration (Hs-68 cells; asterisk in ELISA CMV column): 4.0* μM |
| CC(C)(C)OC(=O)N1CCC[C@H]1C(=O)Nc1ccc(-c2csc(N)n2)cc1 [Example 13, tert-Butyl 2(S)-{{{4-(2-Amino-4-thiazolyl)phenyl}-amino}carbonyl}-1-pyrrolidinecarboxylate] | – | 238 to 239 °C | – |
| CCCC(CCC)N(CC(=O)Nc1ccc(-c2csc(N)n2)cc1)C(=O)C1CCCCC1 [Example 82] | 7* μM | – | – |
| CCCCN(CCCC)C(=O)C(=O)Nc1ccc(-c2csc(N)n2)cc1 [Example 4, N-{4-(2-Amino-4-thiazolyl)phenyl}-N′,N′-dibutylethanediamide] | – | 178 to 179 °C | – |
| Nc1nc(-c2ccc(NC(=O)CN(Cc3ccccc3)C(=O)C3CCCCC3)cc2)cs1 [Example 4, N-{2-{{4-(2-Amino-4-thiazolyl)phenyl)amino}-2-oxoethyl}-N-(phenylmethyl)cyclohexanecarboxamide] | – | 214.5 to 215.5 °C | – |
| Nc1nc(-c2ccc(NC(=O)CN(CC3CCCCC3)C(=O)C3CCCC3)cc2)cs1 [Example 63] | >21* μM | – | – |
| CCC(CC)C(=O)N(CC(=O)Nc1ccc(-c2csc(N)n2)cc1)Cc1ccccc1 [Example 104] | >18* μM | – | – |
| Nc1nc(-c2ccc(NC(=O)CCNCc3ccccc3)cc2)cs1 [Example 8, N-{4-(2-Amino-4-thiazolyl)phenyl}-3-{(phenylmethyl)-amino}propanamide] | – | 131 to 133 °C | – |
| Nc1nc(-c2ccc(NC(=O)[C@@H]3CCCN3Cc3ccccc3)cc2)cs1 [Example 15, N-{4-(2-Amino-4-thiazolyl)phenyl}-1-(phenylmethyl)-2(S)-pyrrolidinecarboxamide] | – | 207 to 209 °C | – |
| CC(C)(C)OC(=O)N[C@@H](Cc1ccccc1)C(=O)Nc1ccc(-c2csc(N)n2)cc1 [Example 11, tert-Butyl N-{2-{{4-(2-Amino-4-thiazolyl)phenyl}-amino}-2-oxo-1(S)-(phenylmethyl)ethyl}carbamate] | – | 183 to 185 °C | – |
| CC(c1ccccc1)N(CC(=O)Nc1ccc(-c2csc(N)n2)cc1)C(=O)OC(C)(C)C (centres unmarked) [Example 88] | – | – | IC50 (HSV-1 helicase-primase): 2.4 µM; EC50 (HSV-1 strain F or KOS): 1.2 µM; EC50 (HCMV (strain AD169) [1]): > 47 µM |
| CN(C(=O)CNCc1ccccc1)c1ccc(-c2csc(N)n2)cc1 [Example 10, N-{4-(2-Amino-4-thiazolyl)phenyl}-N-methyl-2-{(phenylmethyl)amino)acetamide] | – | 160 to 162 °C | – |
| Nc1nc(-c2ccc(NC(=O)CNCc3ccccc3)cc2)cs1 [Example 2, N-{4-(2-Amino-4-thiazolyl)phenyl}-2-{(phenylmethyl)-amino}acetamide] | – | 162 to 163 °C | – |
| Nc1nc(-c2ccc(NC(=O)CN(Cc3ccccc3)S(=O)(=O)N3CCOCC3)cc2)cs1 [Example 7, N-{4-(2-Amino-4-thiazolyl)phenyl}-2-{(4-morpholinylsulfonyl)(phenylmethyl)amino}acetamide] | – | 193 to 194 °C | – |
